Values quoted from earlier work as cited in patent US20260335284A1, “STABLE MITOMYCIN CONCENTRATES” (STEPS BIOSCIENCES, INC., priority 2022, published 2026).

Details: EP 0415430A1

- Stability in water and in PEG (in water and also in PEG): very unstable
- Stability in PG with finite percentage of water (5%) (solutions at 5 mg/mL): most stable
SMILES: CO[C@@]12[C@H](COC(N)=O)C3=C(C(=O)C(C)=C(N)C3=O)N1C[C@@H]1N[C@@H]12 [MMC, Mitomycin C]
